Format in all cases: cell-based, Erwinia chrysanthemi
Assay [1] addresses T1, ELIC D113A/D158A (Dickeya chrysanthemi, UniProt P0C7B7, D113A/D158A/INS163G).
T1 construct: expressed in transfected cells; host or cells: X. laevis oocytes
Description: cell-based. The note with it: for Slope: Schild plot slope; for EC50: 113A/158A. How it is done: (§1) Constructs containing the gene of either the WT or mutant channels preceded by the signal sequence of the chicken α7nAchR were cloned into the pTLN vector for expression in X. laevis oocytes. After linearization of the plasmid DNA by MluI, capped complementary RNA was transcribed with the mMessage mMachine kit (Ambion) and purified with the RNeasy kit (Qiagen). For expression, 1–50 ng of RNA was injected into defolliculated oocytes. Two-electrode voltage clamp measurements were performed 1 d after injection at 20°C (OC-725B, Warner Instrument Corp.). Currents were recorded in bath solutions containing 10 mM HEPES (pH 7), 130 mM NaCl, and the indicated concentrations of cysteamine and divalent cations. In case of solutions containing Zn^2+, cysteamine was replaced by propylamine. The membrane potential in all dose–response measurements was set to −40 mV. As ELIC is permeable to divalent cations, we tested if endogenous calcium-activated chloride channels affected our measurements. To chelate intracellular calcium ions, the oocytes were incubated for 15 to 30 min in bath solutions lacking divalent ions but containing 10 µM BAPTA-AM.

Assay [2] addresses T2, ELIC WT (Dickeya chrysanthemi, UniProt P0C7B7, INS163G).
T2 construct: expressed in transfected cells; host or cells: X. laevis oocytes (cRNA injection, pTLN vector)
Description: cell-based. The note with it: for Slope: Schild plot slope. How it is done:
as §1

The target in assay [3] is T3, ELIC R91A (Dickeya chrysanthemi, UniProt P0C7B7, INS163G/R91A).
T3 construct: expressed in transfected cells; host or cells: X. laevis oocytes
Briefly: Two-electrode voltage clamp, ELIC R91A in oocytes. The note with it: for Slope: Schild plot slope; for pA: agonist cysteamine. How it is done:
as §1
A general note: In two-electrode clamp one electrode senses voltage and the other passes current.

The target of assay [4] is T4, ELIC WT (Dickeya chrysanthemi, UniProt P0C7B7).
T4 construct: expressed in transfected cells; host or cells: X. laevis oocytes (cRNA injection, pTLN vector)
Description: cell-based. The note with it: WT, agonist propylamine. How it is done:
as §1

The target of assay [5] is T5, ELIC H168A (Dickeya chrysanthemi, UniProt P0C7B7, H168A/INS163G).
T5 construct: expressed in transfected cells; host or cells: X. laevis oocytes
Description: Two-electrode voltage clamp, ELIC H168A in oocytes. The note with it: agonist propylamine. As for the experimental part: as §1

Assay [6] deals with T6, ELIC H176A (Dickeya chrysanthemi, UniProt P0C7B7, H176A/INS163G).
T6 construct: expressed in transfected cells; host or cells: X. laevis oocytes
Description: Two-electrode voltage clamp, ELIC H176A in oocytes. The note with it: agonist propylamine. How it is done: as §1

Assay [7] deals with T7, ELIC (Dickeya chrysanthemi, UniProt P0C7B7, INS163G).
T7 construct: expressed in transfected cells; host or cells: HEK 293 cells (ATCC CRL-1573), pcDNA3
Briefly: Agonist concentration jumps, outside-out patches from HEK 293 cells expressing ELIC. As for the experimental part:
Human embryonic kidney 293 cells (American Type Culture Collection-CRL-1573;LGC Promochem) were maintained at 37°C in a 95% air/5% CO2 incubator in DMEM supplemented with 0.11 g/l sodium pyruvate, 10% (v/v) heat-inactivated fetal bovine serum, 100 U/ml penicillin G, 100 µg/ml streptomycin sulfate, and 2 mM L-glutamine (Invitrogen). Cells (passaged every 2 d, up to 30 times) were plated and transfected by calcium phosphate-DNA coprecipitation, with a total amount of DNA of 3 µg/dish (82% ELIC and 18% eGFP DNA, both subcloned in pcDNA3).
Cells were bathed in an extracellular solution containing (mM): 150 KCl, 0.05 or 0.2 CaCl2, and 10 HEPES, pH adjusted to 7.4 with KOH (osmolarity 310 mOsm). Patch pipettes were pulled from thick-walled borosilicate glass (GC150F; Harvard Apparatus) and fire polished to a resistance of 8–12 MΩ. Intracellular solution contained (mM): 150 KCl, 0.5 CaCl2, 5 EGTA, and 10 HEPES, pH adjusted to 7.4 with KOH. Agonist-evoked currents were recorded at 20°C with an Axopatch 200B amplifier (Molecular Devices) from outside-out patches held at −100 mV. Patches were stepped to this holding voltage 0.2 s before the agonist was applied and otherwise held at −40 mV. No correction for junction potential was applied (calculated value 0.2 mV). Currents were filtered at 5 kHz, digitized at 50 kHz with Digidata 1322A, and saved directly on computer with Clampex software (all MDS Analytical Technologies).
All concentration jumps were performed using a piezo stepper (Burleigh instruments) with an application tool made from theta tube glass (Hilgenberg; final tip diameter, 150 µm). Voltage commands for the piezo stepper were 200 ms square pulses conditioned by low-pass eight-pole Bessel filtering (−3 dB frequency 5 kHz) to smooth oscillations. Actual exchange time was estimated by recording the open-tip response to the application of diluted extracellular solution (70% water) after rupture of the patch. Only patches in which the 20%–80% exchange time was faster than 250 µs were included in the analysis.
Agonist solutions were freshly prepared every day from 1 M stock solutions. Propylamine was applied at a concentration known to elicit maximum response (20 mM and 50 mM, for 50 and 200 µM Ca^2+, respectively). Traces shown are averages of 5 or 10 individual agonist currents, separated by at least 10 s. Responses were averaged, and the time course of activation and deactivation (between 95% and 5% of the peak current level) was fitted with one exponential component (program Clampfit 9.0).

Setting [8] is: D113A/D158A, agonist cysteamine.
Setting [9] is: WT, Schild plot x-intercept (log of mM), agonist cysteamine, −40 mV.
[10] abbreviates: WT, Schild analysis, agonist cysteamine, read-out: Ki app.
[11] abbreviates: Ca^2+ 50 µM, propylamine 20 mM (last line, repeat).
[12] abbreviates: Ca^2+ 50 µM, propylamine 20 mM, −100 mV (first line).
Setting [13] is: Ca^2+ 200 µM, propylamine 20 mM.
The mark [14] stands for this setting: Ca^2+ 200 µM, propylamine 50 mM.

Read-outs that look alike come from different tables or passages of the source.

On to `CC(=O)OCC[N+](C)(C)C` [ACh, acetylcholine], for which the Slope in assay [1] (D113A/D158A) is listed as 0.8±0.1; in assay [2] (WT/1 mM Ca^2+), 1.1±0.01; in assay [2] (WT/.25 mM Ca^2+), 0.9±0.1; in assay [2] (WT/.5 mM Ca^2+), 0.9±0.01; in assay [2] (WT, agonist cysteamine) it was 1.0±0.1; in assay [2] (WT, agonist cysteamine, listed as acetylcholine), “unity”. In assay [3] (R91A), the Slope is 0.7±0.1. Also, the pA in assay [1] (setting [8]) is given as 0.32±0.06; in assay [2] (WT/1 mM Ca^2+ present, agonist cysteamine), 0.35±0.01; in assay [2] (WT/.25 mM Ca^2+ present, agonist cysteamine), 0.06±0.06; in assay [2] (WT/.5 mM Ca^2+ present, agonist cysteamine) it was 0.11±0.09; in assay [2] (setting [9]), 0.21±0.06; in assay [3] (R91A), −0.77±0.05. In assay [3] (R91A versus WT), the “increase in the Schild affinity in the mutant R91A” value amounted to 10 fold.
As to `C[N+](C)(C)C` [TMA, tetramethylammonium], in assay [3] (R91A, Schild analysis, read-out: Ki app), the Ki turned out to be 6 mM. Besides, in assay [3] (R91A), the Slope is reported as 0.8±0.1 and the pA was found to be 0.78±0.18.
On to `[Sr+2]` [Sr^2+], for which the Ki in assay [2] (setting [10]) was determined as 0.85 mM. This compound returned a Slope in assay [2] (WT, agonist cysteamine) of 0.9±0.02. In assay [2] (setting [9]), the pA was −0.07±0.02.
`[Zn+2]` [Zn^2+, zinc]: the “modulation in the double mutant” value in assay [1] (D113A/D158A, agonist propylamine) is “abolish”. Besides, the Ki in assay [2] (WT, Schild analysis, agonist propylamine, read-out: Ki app) came out at 0.007 mM; in assay [2] (WT, agonist propylamine, read-out: Schild plot x-intercept), 0.008 mM. In assay [2] (WT, agonist propylamine), the Slope was found to be 1.2±0.01. The pA in assay [2] (WT, Schild plot x-intercept, agonist propylamine) is on record as −2.16±0.13.
On to `[Mg+2]` [Mg^2+], for which the Ki in assay [2] (setting [10]) was 0.43 mM. The Slope in assay [2] (WT, agonist cysteamine) was 0.9±0.01. In assay [2] (setting [9]), the pA is on record as −0.36±0.02.
For `CCCN` [propylamine], the EC50 (commonly the concentration that produces a half-maximal response) was 3.7 mM in assay [1] (Zn^2+ 0 mM, agonist propylamine); 4.56 mM in assay [1] (Zn^2+ 0.01 mM, agonist propylamine); 4.22 mM in assay [1] (Zn^2+ 0.1 mM, agonist propylamine); 0.92 mM in assay [4] (Zn^2+ 0.01 mM); 3.72 mM in assay [4] (Zn^2+ 0.05 mM); 10.1 mM in assay [4] (Zn^2+ 0.1 mM). Also, the EC50 in assay [5] (Zn^2+ 0 mM) worked out at 0.67 mM; in assay [5] (Zn^2+ 0.01 mM), 1.17 mM; in assay [5] (Zn^2+ 0.05 mM) it was 4.82 mM; in assay [5] (Zn^2+ 0.1 mM), 12.2 mM; in assay [6] (Zn^2+ 0 mM) it was 5.16 mM; in assay [6] (Zn^2+ 0.01 mM), 11.9 mM. This compound displayed an EC50 in assay [6] (Zn^2+ 0.025 mM) of 25.5 mM. The τdecay in assay [7] (setting [11]) was determined as 33.5 ± 6.9 ms; in assay [7] (setting [12]), 34.7 ± 5.6 ms; in assay [7] (setting [13]), 23.9 ± 3.1 ms; in assay [7] (setting [14]), 36.7 ± 12.7 ms. Moreover, the τrise was found to be 19.6 ± 3.1 ms in assay [7] (setting [11]), 16.7 ± 1.5 ms in assay [7] (setting [12]), 38.5 ± 6.7 ms in assay [7] (setting [13]) and 16.4 ± 2.2 ms in assay [7] (setting [14]).
Take `[Ba+2]` [Ba^2+, barium]: the Ki came out at 6.5 mM in assay [1] (D113A/D158A, Schild analysis, read-out: Ki app) and 0.85 mM in assay [2] (setting [10]). In addition, the Slope stood at 0.6±0.02 in assay [1] (D113A/D158A) and 1.1±0.03 in assay [2] (WT, agonist cysteamine). Moreover, the “effects on the agonist dose-response curves in the double mutant” value in assay [1] (setting [8]) was “virtually abolishes”. For the same compound, the pA is on record as 0.81±0.02 in assay [1] (setting [8]) and −0.07±0.01 in assay [2] (setting [9]).

These data come from publication PMC3502511, “Inhibition of the Prokaryotic Pentameric Ligand-Gated Ion Channel ELIC by Divalent Cations” (PLoS Biology, 2012).
